The target in one test is T1, hKv3.2 (Homo sapiens, UniProt Q96PR1).
T1 construct: expressed in transfected cells
T1 sequence (Q96PR1 1-638): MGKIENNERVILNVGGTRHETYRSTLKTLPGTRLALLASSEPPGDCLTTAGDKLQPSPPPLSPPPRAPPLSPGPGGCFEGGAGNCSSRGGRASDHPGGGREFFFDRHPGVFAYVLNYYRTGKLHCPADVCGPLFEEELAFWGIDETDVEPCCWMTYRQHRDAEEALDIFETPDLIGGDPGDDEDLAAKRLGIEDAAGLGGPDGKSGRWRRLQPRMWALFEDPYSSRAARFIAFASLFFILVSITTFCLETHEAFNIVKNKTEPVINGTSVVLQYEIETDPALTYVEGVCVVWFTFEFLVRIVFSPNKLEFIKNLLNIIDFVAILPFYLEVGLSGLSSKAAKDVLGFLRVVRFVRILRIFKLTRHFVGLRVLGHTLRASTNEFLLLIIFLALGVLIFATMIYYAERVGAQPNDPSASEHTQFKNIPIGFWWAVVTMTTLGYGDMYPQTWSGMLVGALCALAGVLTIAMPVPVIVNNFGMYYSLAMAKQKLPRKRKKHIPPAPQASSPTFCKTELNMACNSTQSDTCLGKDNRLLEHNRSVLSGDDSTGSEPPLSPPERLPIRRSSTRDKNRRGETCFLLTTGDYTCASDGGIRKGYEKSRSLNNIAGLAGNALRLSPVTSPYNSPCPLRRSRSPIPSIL
Briefly: Automated patch clamp electrophysiology (Patchliner), CHO/Kv3.2 cells. The class given is cell-based. Particulars: 10 μM compound, hKv3.2 in CHO-K1, whole-cell; for activation at 10 µM: peak current at voltage step of −10 mV vs vehicle (0.33% DMSO), read-out: Kv3.2 Activity at 10 μM Potentiation (%); for Kv3.2 Activity at 10 μM Voltage Shift (mV): voltage shift of the IV curve at V1/2. How it is done: hKv3.1, hKv3.2, hKv3.3, and hKv3.4 were stably expressed in CHO-K1 (Chinese hamster ovary) cells and kept under constant antibiotic selection. For in vitro assays, cells were maintained in appropriate growth medium at 37° C. and 5% CO2 in a humidified incubator.
hKv3.X expressing cells were plated in T-25 flasks for 3-4 days at 37° C. (no selection antibiotic) prior to use and grown to 80% confluence. Cells were washed twice with PBS (calcium and magnesium free) and detached with a 5-minute treatment at 37° C. with 2-3 mls of Accutase®. Cells were collected, and flask was washed in CHO-SFM II media (Life Technologies Gibco), centrifuged for 2 minutes at ˜110×g and resuspended to obtain a single cell suspension of ˜2-3×10^6 cells/ml.
The intracellular solution contained the following (in mM): KCl 50, NaCl 10, KF 60, EGTA 20, HEPES 10, adjusted to pH 7.2 with KOH and an osmolarity of 285 mOsmol. Seal enhancer was purchased from Nanion (80 mM NaCl, 3 mM KCl, 10 mM MgCl2, 35 mM CaCl2), 10 mM HEPES, pH7.4, 298 mOsmol. The external solution contained (in mM): NaCl 140, KCl 4, CaCl2) 2, MgCl2 1, HEPES 10, Glucose 5, adjusted to pH7.4 and an osmolarity of 298 mOsmol.
All compounds were initially tested at 10 uM at a final DMSO concentration of 0.33%. Compounds were dissolved in dimethylsulfoxide (DMSO) at a stock concentration of 30 mM. The compound was further diluted 1:10 to give a stock concentration of 3 mM in DMSO. The final assay solution was diluted 1:300 in External solution to give a final concentration of 10 uM. For the DMSO Control Buffer 30 uL of DMSO was added to 10 mL buffer.
All electrophysiological recordings were performed at ambient temperature (21-23° C.) using automated patch clamp (Patchliner, Nanion Technologies GmbH) in the whole-cell configuration.
Cell membrane potentials were held at −80 mV, and currents were evoked by voltage steps (1000 ms duration) from −60 to +60 mV in 10 mV increments. This was performed first with vehicle (0.33% DMSO) and then with 10 uM compound, after a 3-minute incubation period. Data was taken from 4 cells per assay.
The recordings were analysed and selected using peak current amplitude (>100 pA at the −10 mV voltage step) in the absence of compound to eliminate unsuitable cells from analysis. Peak current amplitude was measured and recorded for each voltage step and data was normalised to the maximum current at +60 mV. The normalised Kv3.x currents following addition of the compound were then compared with the currents recorded prior to compound addition (vehicle control). Positive modulation was determined as % potentiation at the voltage step of −10 mV=[current (cmpd)/current (veh)]*100−100. % potentiation≥50% was considered acceptable. In addition, voltage shift of the IV curve at V1/2 was measured. V1/2 of ≥−5 mV was also considered acceptable. IV curves were plotted in GraphPad Prism (software version 6.0) and fitted with a Boltzmann equation, where V1/2 is the voltage at half-maximal activation.
Background: In patch-clamp work, channel activity is measured electrically.

The next test addresses T2, hKv3.1 (Homo sapiens, UniProt P48547).
T2 construct: expressed in transfected cells
T2 sequence (P48547 1-511): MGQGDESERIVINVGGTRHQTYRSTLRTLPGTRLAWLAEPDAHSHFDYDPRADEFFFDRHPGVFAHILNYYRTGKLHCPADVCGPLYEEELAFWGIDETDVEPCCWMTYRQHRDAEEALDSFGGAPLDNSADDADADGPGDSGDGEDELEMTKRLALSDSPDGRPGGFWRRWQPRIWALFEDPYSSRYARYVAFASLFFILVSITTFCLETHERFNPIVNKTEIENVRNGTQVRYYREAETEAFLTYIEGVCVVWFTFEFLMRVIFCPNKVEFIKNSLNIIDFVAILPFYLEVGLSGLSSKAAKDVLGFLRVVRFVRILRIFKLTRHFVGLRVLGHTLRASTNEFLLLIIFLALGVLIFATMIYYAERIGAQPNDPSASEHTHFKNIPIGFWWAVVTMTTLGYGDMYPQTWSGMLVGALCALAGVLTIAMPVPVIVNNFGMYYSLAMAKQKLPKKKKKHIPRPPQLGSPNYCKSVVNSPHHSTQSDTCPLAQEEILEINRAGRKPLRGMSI
Briefly: Automated patch clamp electrophysiology (Patchliner), CHO/Kv3.1 cells. The class given is cell-based. Particulars: 10 μM compound, hKv3.1 in CHO-K1, whole-cell; for Kv3.1 Activity at 10 μM Potentiation (%): peak current at voltage step of −10 mV vs vehicle (0.33% DMSO); for Kv3.1 Activity at 10 μM Voltage Shift (mV): voltage shift of the IV curve at V1/2. The gist of the method: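 Whole-cell automated patch clamp on CHO-K1 stably expressing hKv3.1 or hKv3.2, 21-23 °C, held at −80 mV with 1000 ms steps from −60 to +60 mV. Compound at 10 uM final (0.33% DMSO) after 3-min incubation versus vehicle, 4 cells; % potentiation at −10 mV and Boltzmann-fitted V1/2 shift.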

Take `COc1cc(Oc2nccc(N3C(=O)NC(C)(C)C3=O)n2)ccc1C(F)(F)F` [Example 65, 3-[2-[3-methoxy-4-(trifluoromethyl)-phenoxy]pyrimidin-4-yl]-5,5-dimethyl-imidazolidine-2,4-dione]: at hKv3.2, the activation at 10 µM was found to be 35% and the “Kv3.2 Activity at 10 μM Voltage Shift (mV)” value is −2.8 mV. At hKv3.1, the “Kv3.1 Activity at 10 μM Potentiation (%)” value came out at 32% and the “Kv3.1 Activity at 10 μM Voltage Shift (mV)” value was −2.7 mV.

`COc1cc(Oc2nccc(N3C(=O)NC4(CCCCC4)C3=O)n2)ccc1C` [Example 74, 3-[2-(3-methoxy-4-methyl-phenoxy)pyrimidin-4-yl]-1,3-diazaspiro[4.5]decane-2,4-dione]: on hKv3.2, the activation at 10 µM came to 12% and the “Kv3.2 Activity at 10 μM Voltage Shift (mV)” value is reported as −1.6 mV. In addition, at hKv3.1, the “Kv3.1 Activity at 10 μM Potentiation (%)” value amounted to 41% and the “Kv3.1 Activity at 10 μM Voltage Shift (mV)” value is listed as −3.8 mV.
